Results published in US20080194585A1, “Fungicidal Pyrazine Derivatives” (priority 2005, published 2008).
Marks after values point to notes of the source that are not given here.

Key:
Plasmopara viticola = assay: Test D: grape downy mildew, spray after inoculation of grape seedlings; assay type: in vivo
Text: Upon removal, disease ratings were made. […] A dash (-) indicates no test results.

Phytophthora infestans = assay: whole plant or invertebrate; assay type: in vivo
Septoria tritici = assay: Test J: wheat leaf blotch, preventive spray on wheat seedlings; assay type: in vivo
Text: A dash (-) indicates no test results.

fusarium graminearium = assay: Test I: wheat head scab, preventive spray on wheat seedlings
Experimental: (the causal agent of wheat head scab) and incubated in a saturated atmosphere at 20° C. for 72 h, and then moved to a growth chamber at 22° C. for 5 days, after which disease ratings were made.

[1] = tested on: Puccinia recondita f. sp. tritici; assay: Test K: wheat leaf rust, preventive spray on wheat seedlings
Botrytis cinerea = assay: Test E: tomato botrytis, preventive spray on tomato seedlings
Septoria nodorum = assay: Test H: wheat glum blotch, preventive spray on wheat seedlings
Experimental: (the causal agent of wheat glum blotch) and incubated in a saturated atmosphere at 20° C. for 48 h, and then moved to a growth chamber at 22° C. for 5 days, after which disease ratings were made.

[2] = tested on: Erysiphe graminis f. sp. tritici; assay: Test L: wheat powdery mildew, preventive spray on wheat seedlings
Pythium aphanidermatum = assay: Test A: bluegrass pythium blight, preventive spray on bluegrass seedlings
Rhizoctonia oryzae = assay: Test G: turf brown patch, preventive spray on creeping bent grass seedlings
Experimental: (the causal agent of turf brown patch) and incubated in a saturated atmosphere at 27° C. for 24 h, and then moved to a growth chamber at 27° C. for 5 days, after which disease ratings were made.

[3] = tested on: Colletotrichum orbiculare; assay: Test B: cucumber Colletotrichum anthracnose, preventive spray on cucumber seedlings

SMILES: CCC(CC)Cn1c(-c2c(F)cccc2F)c(Cl)nc(-n2cccn2)c1=O [compound 183]
- Test D disease control rating (Plasmopara viticola; 40 ppm (*)): 0* %
- Test F disease control rating (Phytophthora infestans; 40 ppm (*)): 0* %
- Test J disease control rating (Septoria tritici; 40 ppm (*)): 100* %
- Test I disease control rating (fusarium graminearium; 40 ppm (*)): 0* %
- Test K disease control rating ([1]; 40 ppm (*)): 99* %
- Test E disease control rating (Botrytis cinerea; 40 ppm (*)): 100* %
- Test H disease control rating (Septoria nodorum; 40 ppm (*)): 89* %
- Test L disease control rating ([2]; 40 ppm (*)): 92* %
- Test A disease control rating (Pythium aphanidermatum; 40 ppm (*)): 0* %
- Test G disease control rating (Rhizoctonia oryzae; 40 ppm (*)): 81* %
- Test B disease control rating ([3]; 40 ppm (*)): 0* %

SMILES: CCn1c(-c2c(F)cccc2F)c(Cl)nc(-n2cccn2)c1=O [compound 184]
- Test D disease control rating (Plasmopara viticola; 40 ppm (*)): 67* %
- Test F disease control rating (Phytophthora infestans; 40 ppm (*)): 0* %
- Test J disease control rating (Septoria tritici; 40 ppm (*)): 96* %
- Test I disease control rating (fusarium graminearium; 40 ppm (*)): 0* %
- Test K disease control rating ([1]; 40 ppm (*)): 98* %
- Test E disease control rating (Botrytis cinerea; 40 ppm (*)): 100* %
- Test H disease control rating (Septoria nodorum; 40 ppm (*)): 100* %
- Test L disease control rating ([2]; 40 ppm (*)): 98* %
- Test A disease control rating (Pythium aphanidermatum; 40 ppm (*)): 0* %
- Test G disease control rating (Rhizoctonia oryzae; 40 ppm (*)): 88* %
- Test B disease control rating ([3]; 40 ppm (*)): 0* %

SMILES: C#CCn1c(-c2c(F)cccc2F)c(Cl)nc(-n2cccn2)c1=O [compound 186]
- Test D disease control rating (Plasmopara viticola; 40 ppm (*)): 0* %
- Test F disease control rating (Phytophthora infestans; 40 ppm (*)): 0* %
- Test J disease control rating (Septoria tritici; 40 ppm (*)): 92* %
- Test I disease control rating (fusarium graminearium; 40 ppm (*)): 0* %
- Test K disease control rating ([1]; 40 ppm (*)): 100* %
- Test E disease control rating (Botrytis cinerea; 40 ppm (*)): 99* %
- Test H disease control rating (Septoria nodorum; 40 ppm (*)): 100* %
- Test L disease control rating ([2]; 40 ppm (*)): 90* %
- Test A disease control rating (Pythium aphanidermatum; 40 ppm (*)): 0* %
- Test G disease control rating (Rhizoctonia oryzae; 40 ppm (*)): 67* %
- Test B disease control rating ([3]; 40 ppm (*)): 16* %

SMILES: O=c1c(-n2cccn2)nc(Cl)c(-c2c(F)cccc2F)n1Cc1ccco1 [compound 187]
- Test D disease control rating (Plasmopara viticola; 40 ppm (*)): 0* %
- Test F disease control rating (Phytophthora infestans; 40 ppm (*)): 0* %
- Test J disease control rating (Septoria tritici; 40 ppm (*)): 77* %
- Test I disease control rating (fusarium graminearium; 40 ppm (*)): 0* %
- Test K disease control rating ([1]; 40 ppm (*)): 91* %
- Test E disease control rating (Botrytis cinerea; 40 ppm (*)): 96* %
- Test H disease control rating (Septoria nodorum; 40 ppm (*)): 0* %
- Test L disease control rating ([2]; 40 ppm (*)): 0* %
- Test A disease control rating (Pythium aphanidermatum; 40 ppm (*)): 0* %
- Test G disease control rating (Rhizoctonia oryzae; 40 ppm (*)): 0* %
- Test B disease control rating ([3]; 40 ppm (*)): 0* %

SMILES: O=c1c(-n2cncn2)nc(Cl)c(-c2c(F)cccc2F)n1Cc1ccco1 [compound 188]
- Test D disease control rating (Plasmopara viticola; 40 ppm (*)): 0* %
- Test F disease control rating (Phytophthora infestans; 40 ppm (*)): 0* %
- Test J disease control rating (Septoria tritici; 40 ppm (*)): 23* %
- Test I disease control rating (fusarium graminearium; 40 ppm (*)): 0* %
- Test K disease control rating ([1]; 40 ppm (*)): 0* %
- Test E disease control rating (Botrytis cinerea; 40 ppm (*)): 56* %
- Test H disease control rating (Septoria nodorum; 40 ppm (*)): 0* %
- Test L disease control rating ([2]; 40 ppm (*)): 0* %
- Test A disease control rating (Pythium aphanidermatum; 40 ppm (*)): 0* %
- Test G disease control rating (Rhizoctonia oryzae; 40 ppm (*)): 0* %
- Test B disease control rating ([3]; 40 ppm (*)): 0* %

SMILES: N#Cc1nc(Cl)c(-c2c(F)cccc2F)n(Cc2ccco2)c1=O [compound 189]
- Test D disease control rating (Plasmopara viticola; 40 ppm (*)): 0* %
- Test F disease control rating (Phytophthora infestans; 40 ppm (*)): 0* %
- Test J disease control rating (Septoria tritici; 40 ppm (*)): 15* %
- Test I disease control rating (fusarium graminearium; 40 ppm (*)): 0* %
- Test K disease control rating ([1]; 40 ppm (*)): 0* %
- Test E disease control rating (Botrytis cinerea; 40 ppm (*)): 0* %
- Test H disease control rating (Septoria nodorum; 40 ppm (*)): 0* %
- Test L disease control rating ([2]; 40 ppm (*)): 0* %
- Test A disease control rating (Pythium aphanidermatum; 40 ppm (*)): 0* %
- Test G disease control rating (Rhizoctonia oryzae; 40 ppm (*)): 0* %
- Test B disease control rating ([3]; 40 ppm (*)): 0* %

SMILES: CC(C)Cn1c(-c2c(F)cccc2F)c(Cl)nc(-c2cnc3ccccn23)c1=O [compound 190]
- Test D disease control rating (Plasmopara viticola; 200 ppm): 0%
- Test F disease control rating (Phytophthora infestans; 200 ppm): 0%
- Test J disease control rating (Septoria tritici; 200 ppm): 0%
- Test I disease control rating (fusarium graminearium; 200 ppm): 0%
- Test K disease control rating ([1]; 200 ppm): 0%
- Test E disease control rating (Botrytis cinerea; 200 ppm): 0%
- Test H disease control rating (Septoria nodorum; 200 ppm): 0%
- Test L disease control rating ([2]; 200 ppm): 0%
- Test A disease control rating (Pythium aphanidermatum; 200 ppm): 0%
- Test G disease control rating (Rhizoctonia oryzae; 200 ppm): 0%
- Test B disease control rating ([3]; 200 ppm): 0%

SMILES: CCC(C)Cn1c(-c2c(F)cccc2F)c(Cl)nc(-n2nccn2)c1=O (stereo not shown) [compound 191]
- Test D disease control rating (Plasmopara viticola; 200 ppm): 0%
- Test F disease control rating (Phytophthora infestans; 200 ppm): 0%
- Test J disease control rating (Septoria tritici; 200 ppm): 36%
- Test I disease control rating (fusarium graminearium; 200 ppm): 0%
- Test K disease control rating ([1]; 200 ppm): 86%
- Test E disease control rating (Botrytis cinerea; 200 ppm): 97%
- Test H disease control rating (Septoria nodorum; 200 ppm): 0%
- Test L disease control rating ([2]; 200 ppm): 0%
- Test A disease control rating (Pythium aphanidermatum; 200 ppm): 0%
- Test G disease control rating (Rhizoctonia oryzae; 200 ppm): 0%
- Test B disease control rating ([3]; 200 ppm): 0%

SMILES: CC(C)Cn1c(-c2ccccc2Cl)c(Cl)nc(-n2cncn2)c1=O [compound 192]
- Test D disease control rating (Plasmopara viticola; 40 ppm (*)): 0* %
- Test F disease control rating (Phytophthora infestans; 40 ppm (*)): 0* %
- Test J disease control rating (Septoria tritici; 40 ppm (*)): 98* %
- Test I disease control rating (fusarium graminearium; 40 ppm (*)): 0* %
- Test K disease control rating ([1]; 40 ppm (*)): 89* %
- Test E disease control rating (Botrytis cinerea; 40 ppm (*)): 99* %
- Test H disease control rating (Septoria nodorum; 40 ppm (*)): 0* %
- Test L disease control rating ([2]; 40 ppm (*)): 0* %
- Test A disease control rating (Pythium aphanidermatum; 40 ppm (*)): 0* %
- Test G disease control rating (Rhizoctonia oryzae; 40 ppm (*)): 31* %
- Test B disease control rating ([3]; 40 ppm (*)): 0* %

SMILES: CC(C)Cn1c(-c2ccccc2Cl)c(Cl)nc(-n2cccn2)c1=O [compound 193]
- Test D disease control rating (Plasmopara viticola; 40 ppm (*)): 17* %
- Test F disease control rating (Phytophthora infestans; 40 ppm (*)): 0* %
- Test J disease control rating (Septoria tritici; 40 ppm (*)): 99* %
- Test I disease control rating (fusarium graminearium; 40 ppm (*)): 0* %
- Test K disease control rating ([1]; 40 ppm (*)): 100* %
- Test E disease control rating (Botrytis cinerea; 40 ppm (*)): 100* %
- Test H disease control rating (Septoria nodorum; 40 ppm (*)): 89* %
- Test L disease control rating ([2]; 40 ppm (*)): 68* %
- Test A disease control rating (Pythium aphanidermatum; 40 ppm (*)): 0* %
- Test G disease control rating (Rhizoctonia oryzae; 40 ppm (*)): 33* %
- Test B disease control rating ([3]; 40 ppm (*)): 29* %

SMILES: CC(C)Cn1c(-c2ccccc2Br)c(Cl)nc(-n2cncn2)c1=O [compound 194]
- Test D disease control rating (Plasmopara viticola; 40 ppm (*)): 0* %
- Test F disease control rating (Phytophthora infestans; 40 ppm (*)): 0* %
- Test J disease control rating (Septoria tritici; 40 ppm (*)): 88* %
- Test I disease control rating (fusarium graminearium; 40 ppm (*)): 0* %
- Test K disease control rating ([1]; 40 ppm (*)): 92* %
- Test E disease control rating (Botrytis cinerea; 40 ppm (*)): 95* %
- Test H disease control rating (Septoria nodorum; 40 ppm (*)): 0* %
- Test L disease control rating ([2]; 40 ppm (*)): 0* %
- Test A disease control rating (Pythium aphanidermatum; 40 ppm (*)): 0* %
- Test G disease control rating (Rhizoctonia oryzae; 40 ppm (*)): 0* %
- Test B disease control rating ([3]; 40 ppm (*)): 0* %

SMILES: CC(C)Cn1c(-c2ccccc2Br)c(Cl)nc(-n2cccn2)c1=O [compound 195]
- Test D disease control rating (Plasmopara viticola; 40 ppm (*)): 0* %
- Test F disease control rating (Phytophthora infestans; 40 ppm (*)): 0* %
- Test J disease control rating (Septoria tritici; 40 ppm (*)): 100* %
- Test I disease control rating (fusarium graminearium; 40 ppm (*)): 0* %
- Test K disease control rating ([1]; 40 ppm (*)): 100* %
- Test E disease control rating (Botrytis cinerea; 40 ppm (*)): 99* %
- Test H disease control rating (Septoria nodorum; 40 ppm (*)): 87* %
- Test L disease control rating ([2]; 40 ppm (*)): 0* %
- Test A disease control rating (Pythium aphanidermatum; 40 ppm (*)): 0* %
- Test G disease control rating (Rhizoctonia oryzae; 40 ppm (*)): 47* %
- Test B disease control rating ([3]; 40 ppm (*)): 26* %

SMILES: CCc1ccccc1-c1c(Cl)nc(-n2cncn2)c(=O)n1CC(C)C [compound 196]
- Test D disease control rating (Plasmopara viticola; 40 ppm (*)): 0* %
- Test F disease control rating (Phytophthora infestans; 40 ppm (*)): 0* %
- Test J disease control rating (Septoria tritici; 40 ppm (*)): 0* %
- Test I disease control rating (fusarium graminearium; 40 ppm (*)): 44* %
- Test K disease control rating ([1]; 40 ppm (*)): 0* %
- Test E disease control rating (Botrytis cinerea; 40 ppm (*)): 0* %
- Test H disease control rating (Septoria nodorum; 40 ppm (*)): 0* %
- Test L disease control rating ([2]; 40 ppm (*)): 0* %
- Test A disease control rating (Pythium aphanidermatum; 40 ppm (*)): 0* %
- Test G disease control rating (Rhizoctonia oryzae; 40 ppm (*)): 0* %
- Test B disease control rating ([3]; 40 ppm (*)): 0* %

SMILES: CCc1ccccc1-c1c(Cl)nc(-n2cccn2)c(=O)n1CC(C)C [compound 197]
- Test D disease control rating (Plasmopara viticola; 40 ppm (*)): 0* %
- Test F disease control rating (Phytophthora infestans; 40 ppm (*)): 0* %
- Test J disease control rating (Septoria tritici; 40 ppm (*)): 23* %
- Test I disease control rating (fusarium graminearium; 40 ppm (*)): 0* %
- Test K disease control rating ([1]; 40 ppm (*)): 0* %
- Test E disease control rating (Botrytis cinerea; 40 ppm (*)): 41* %
- Test H disease control rating (Septoria nodorum; 40 ppm (*)): 0* %
- Test L disease control rating ([2]; 40 ppm (*)): 0* %
- Test A disease control rating (Pythium aphanidermatum; 40 ppm (*)): 0* %
- Test G disease control rating (Rhizoctonia oryzae; 40 ppm (*)): 16* %
- Test B disease control rating ([3]; 40 ppm (*)): 0* %
